Data reported in publication PMC10823733, “Promising antibacterial efficacy of arenicin peptides against the emerging opportunistic pathogen Mycobacterium abscessus” (Journal of Biomedical Science, 2024).
Read-outs that look alike come from different tables or passages of the source. Positions of bridges follow the written chain, without caps; N, C: chain ends. Non-standard residues stand in square brackets, D forms with d. Residues, ends and D or L forms follow the SMILES beside them. Abu = CC[C@H](N)C(=O)O

How the values were obtained:
[1] = format: cell-based, human
Description: (§1) The toxicity of each peptide was evaluated on human cell lines using a resazurin assay as previously described. Human lung epithelial cells BEAS-2B (ATCC CRL-9609), liver cells HepG2 (ATCC HB-8065), and kidney cells A498 (ATCC HTB-44) were used. All cells were cultured in Dulbecco's modified essential medium (DMEM) supplemented with 10% heat-inactivated fetal calf serum (FBS, Thermo Fisher Scientific), and 1% L-glutamine (Thermo Fisher Scientific) (DMEM^FBS) at 37 °C in a 5% CO2 incubator to subconfluent concentrations. Cells were detached with trypsin–EDTA solution (Thermo Fisher Scientific), and around 1 × 10^4 cells/well were seeded in 96-well flat-bottom microplates (Greiner Bio-One) with a lid, and cultured for additional 48–72 h at 37 °C and 5% CO2 until cell confluence. The medium was removed, and 100 µL of serial two-fold dilutions of the peptides in DMEM^FBS were added to each well. Following a 48 h-incubation period at 37 °C and 5% CO2, cell viability was evaluated using the resazurin assay as described above. Fluorescence of the resazurin metabolite resorufin (λex/λem = 530/590 nm) was measured after 2 h incubation at 37 °C and 5% CO2 in the dark, with a microplate reader (Biotek, Synergy Mx, Colmar, France). The cytotoxic concentration of peptide leading to 50% cell death as compared to the control was defined as the CC50, and was determined by fitting the RFU% sigmoidal dose–response curves in Kaleidagraph 4.2 software (Synergy Software). All experiments were conducted in triplicate.

[2] = format: cell-based, human; remark: listed apart in the source
Description: as §1

A498 cells = assay: Cytotoxic assay on human cells (resazurin); format: cell-based
Description: as §1

human erythrocytes = format: cell-based; details: for HC10 / HC50: red cells of human, 1 h
Description: The hemolytic activity of each peptide was determined as previously described. Briefly, human erythrocytes (red blood cells, hRBC; Divbioscience, Ulvenhout, Netherlands) were washed 2-times with sterile phosphate buffered saline (PBS; Thermo Fisher Scientific) and pelleted by centrifugation at 800 rpm for 5 min; then resuspended in DMEM^FBS to a final erythrocyte concentration of 8% (v/v). Then, 100 µL of this hRBC solution was distributed to each well of sterile 96-well flat-bottom microplates (Greiner Bio-One) containing serial two-fold dilutions of arenicin, arenicin-Abu derivative or controls in DMEM^FBS to a final volume of 200 µL. After 1 h incubation at 37 °C, microplates were centrifuged at 800 rpm for 5 min. Then, 100 µL of supernatant were carefully transferred to a new 96-well microplate, and OD405 corresponding to the release of hemoglobin was measured using a microplate reader (Biotek, Synergy Mx, Colmar, France). DMEM^FBS and Triton-X100 at 0.1% (v/v) were used as negative (i.e., 0% hemolysis) and positive (i.e., 100% hemolysis) controls, respectively. The concentration of peptide leading to 10% and 50% of hemolysis compared to the positive control was defined as the HC10 and HC50, respectively, and was determined by fitting the dose–response curves in Kaleidagraph 4.2 software (Synergy Software). All experiments were done in triplicate.

M. abscessus S and R = format: cell-based, Mycobacterium abscessus
Description: Mycobacterium abscessus S and R strains (CIP 104536^ T) were grown in Middlebrook 7H9 medium supplemented with 0.05% (v/v) Tween 80, 0.2% (v/v) glycerol and 10% (v/v) oleic acid–albumin–dextrose–catalase (OADC enrichment; BD Difco) (7H9-S^OADC) at 37 °C under stirring (200 rpm). We used Ar-1 (RWC^3VYAYVRVRGVLVRYRRC^20W) and Ar-1-Abu, in which the cysteines in position 3 and 20 were replaced by alpha-amino-n-butyric acid (Abu) residues. […]
For determining the antimicrobial activity of the different peptides, the Middlebrook 7H9 broth microdilution method was used in sterile 96-well flat-bottom Greiner Bio-One polypropylene microplates with lid (Thermo Fisher Scientific) using the resazurin microtiter assay (REMA). […] Fluorescence of the metabolite resorufin (λex/λem = 530/590 nm) was measured using a Tecan Spark 10 M ™ multimode microplate reader (Tecan Group Ltd, France). Relative fluorescence units (RFU) were defined as: RFU% = (test well FU/mean FU of control B wells) × 100. MIC50 and MIC90 values were determined by fitting the RFU% sigmoidal dose–response curves in Kaleidagraph 4.2 software (Synergy Software, Reading, PA). […]

M. abscessus R = assay: Induction of resistance assay; format: cell-based, Mycobacterium abscessus; details: after 20–30 days of exposure
Description: (§2) Induction of bacterial resistance by Ar-1 was achieved by exposure of M. abscessus S and R to Ar-1 or to the control antibiotic clarithromycin (CLR) for 42 consecutive days, and with repeated broth microdilution susceptibility testing and subsequent MIC determination. After each MIC determination, the well containing the highest concentration of Ar-1 or CLR that allows bacterial growth was diluted 1:1000 in 7H9-S^OADC and used as inoculum for the next MIC assay with fresh amounts of Ar-1 or CLR.

M. abscessus S = assay: Induction of resistance assay; format: cell-based, Mycobacterium abscessus; details: after 20–30 days of exposure
Description: as §2

Structure (SMILES): CC[C@H](NC(=O)[C@H](CCCNC(=N)N)NC(=O)[C@H](CCCNC(=N)N)NC(=O)[C@H](Cc1ccc(O)cc1)NC(=O)[C@H](CCCNC(=N)N)NC(=O)[C@@H](NC(=O)[C@H](CC(C)C)NC(=O)[C@@H](NC(=O)CNC(=O)[C@H](CCCNC(=N)N)NC(=O)[C@@H](NC(=O)[C@H](CCCNC(=N)N)NC(=O)[C@@H](NC(=O)[C@H](Cc1ccc(O)cc1)NC(=O)[C@H](C)NC(=O)[C@H](Cc1ccc(O)cc1)NC(=O)[C@@H](NC(=O)[C@H](CC)NC(=O)[C@H](Cc1c[nH]c2ccccc12)NC(=O)[C@@H](N)CCCNC(=N)N)C(C)C)C(C)C)C(C)C)C(C)C)C(C)C)C(=O)N[C@@H](Cc1c[nH]c2ccccc12)C(=O)O [Ar-1-Abu] (H-RW[Abu]VYAYVRVRGVLVRYRR[Abu]W-OH)
- CC50 [1]: > 100 µM
- CC50 [2]: > 100 µM
- toxicity towards kidney A498 cells (in words) (A498 cells): nontoxic
- hemolytic activity on human erythrocytes (in words, considering HC10) (human erythrocytes): totally inactive
- HC10 (human erythrocytes): > 100 µM
- HC50 (human erythrocytes): > 100 µM

Structure (SMILES): CC(C)C[C@@H]1NC(=O)[C@H](C(C)C)NC(=O)CNC(=O)[C@H](CCCNC(=N)N)NC(=O)[C@H](C(C)C)NC(=O)[C@H](CCCNC(=N)N)NC(=O)[C@H](C(C)C)NC(=O)[C@H](Cc2ccc(O)cc2)NC(=O)[C@H](C)NC(=O)[C@H](Cc2ccc(O)cc2)NC(=O)[C@H](C(C)C)NC(=O)[C@@H](NC(=O)[C@H](Cc2c[nH]c3ccccc23)NC(=O)[C@@H](N)CCCNC(=N)N)CSSC[C@@H](C(=O)N[C@@H](Cc2c[nH]c3ccccc23)C(=O)O)NC(=O)[C@H](CCCNC(=N)N)NC(=O)[C@H](CCCNC(=N)N)NC(=O)[C@H](Cc2ccc(O)cc2)NC(=O)[C@H](CCCNC(=N)N)NC(=O)[C@H](C(C)C)NC1=O [Ar-1] (H-RWCVYAYVRVRGVLVRYRRCW-OH; disulfide 3-20)
- mean MIC50 (M. abscessus S and R): 11.5 ± 1.0 µM
- CC50 [1]: > 100 µM
- CC50 [2]: > 100 µM
- toxicity towards kidney A498 cells (in words) (A498 cells): nontoxic
- HC10 (human erythrocytes): 20.2 ± 1.8 µM
- HC50 (human erythrocytes): > 100 µM

Structure (SMILES): CC[C@H]1OC(=O)[C@H](C)[C@@H](O[C@H]2C[C@@](C)(OC)[C@@H](O)[C@H](C)O2)[C@H](C)[C@@H](O[C@@H]2O[C@H](C)C[C@H](N(C)C)[C@H]2O)[C@](C)(OC)C[C@@H](C)C(=O)[C@H](C)[C@@H](O)[C@]1(C)O [CLR, clarithromycin]
- increase in MIC90 values (M. abscessus R): 32 fold
- increase in MIC90 values (M. abscessus S): 32 fold
